Source: patent US12281122B1, “PI3K inhibitors” (Cogent Biosciences, Inc., priority 2023, dated 2025)

What was measured:
[1] = test system: SKBR3 (PI3Kα-Wild Type) cell line; assay: HTRF phospho-AKT(S473) cell assay in SKBR3 cells; type: cell-based, human; conditions: Homo sapiens, SK-BR-3; HTRF phospho-AKT(S473), SKBR3 (PI3Kα-Wild Type) cells, 2 hours compound incubation, PDGF-BB stimulated
How it was run: (§1)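 Cells plated overnight (T47D in RPMI/10% FBS/0.2 units/mL insulin; SKBR3 in McCoy's 5A/10% FBS), then given 12-point 1:3 compound series (top 5 μM T47D, 10 μM SKBR3; ≤0.5% DMSO) for 2 h at 37° C. SKBR3 stimulated with 70 ng/ml PDGF-BB for final 15 min. Lysate pAKT(S473) by HTRF; IC50 calculated.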

[2] = test system: T47D (PI3Kα-H1047R) cell line; assay: HTRF phospho-AKT(S473) cell assay in T47D cells; type: cell-based, human; conditions: Homo sapiens; HTRF phospho-AKT(S473), T47D (PI3Kα-H1047R) cells, 2 hours compound incubation
How it was run: as §1

Compound | IC50 [1] | IC50 [2]
Cc1cc([C@@H](C)Nc2ccc(Cl)nc2C(=O)NS(C)(=O)=O)c2nc(N3C[C@@H]4[C@H](C3)[C@H]4c3coc(C)n3)n(C)c(=O)c2c1 [Compound 448, 6-chloro-3-(((R)-1-(3,6-dimethyl-2-((1R,5S,6R)-6-(2-methyloxazol-4-yl)-3-azabicyclo[3.1.0]hexan-3-yl)-4-oxo-3,4-dihydroquinazolin-8-yl)ethyl)amino)-N-(methylsulfonyl) picolinamide] | 1 to 5 µM | < 0.25 µM
Cc1cc([C@@H](C)Nc2ccc(Cl)nc2C(=O)NS(C)(=O)=O)c2nc(N3C[C@@H]4[C@H](C3)[C@H]4c3ccc(C)nc3)n(C)c(=O)c2c1 [Compound 449, 6-chloro-3-(((R)-1-(3,6-dimethyl-2-((1R,5S,6S)-6-(6-methylpyridin-3-yl)-3-azabicyclo[3.1.0]hexan-3-yl)-4-oxo-3,4-dihydroquinazolin-8-yl)ethyl)amino)-N-(methylsulfonyl) picolinamide] | ≥ 5 µM | 0.25 to 0.5 µM
Cc1cc([C@@H](C)Nc2ccc(Cl)nc2C(=O)NS(C)(=O)=O)c2nc(N3CCN(c4nn(C)cc4F)CC3)n(C)c(=O)c2c1 [Compound 450, (R)-6-chloro-3-((1-(2-(4-(4-fluoro-1-methyl-1H-pyrazol-3-yl)piperazin-1-yl)-3,6-dimethyl-4-oxo-3,4-dihydroquinazolin-8-yl)ethyl)amino)-N-(methylsulfonyl) picolinamide] | ≥ 5 µM | < 0.25 µM
C[C@@H](Nc1ccc(Cl)nc1C(=O)NS(C)(=O)=O)c1cc(Cl)cc2c(=O)n(C)c(N3C[C@@H]4[C@H](C3)[C@H]4c3ccn(C)n3)nc12 [Compound 451, 6-chloro-3-(((R)-1-(6-chloro-3-methyl-2-((1R,5S,6R)-6-(1-methyl-1H-pyrazol-3-yl)-3-azabicyclo[3.1.0]hexan-3-yl)-4-oxo-3,4-dihydroquinazolin-8-yl)ethyl)amino)-N-(methylsulfonyl) picolinamide] | 1 to 5 µM | < 0.25 µM
C[C@@H](Nc1ccc(Cl)nc1C(=O)NS(C)(=O)=O)c1cc(C(F)(F)F)cc2c(=O)n(C)c(N3C[C@@H]4[C@H](C3)[C@H]4c3ccn(C)n3)nc12 [Compound 452, 6-chloro-3-(((R)-1-(3-methyl-2-((1R,5S,6R)-6-(1-methyl-1H-pyrazol-3-yl)-3-azabicyclo[3.1.0]hexan-3-yl)-4-oxo-6-(trifluoromethyl)-3,4-dihydroquinazolin-8-yl)ethyl)amino)-N-(methylsulfonyl) picolinamide] | 1 to 5 µM | 0.25 to 0.5 µM
C[C@@H](Nc1ccc(Cl)nc1C(=O)NS(C)(=O)=O)c1cc(C(F)(F)F)cc2c(=O)n(C)c(N3CCC(c4nn(C)cc4F)CC3)nc12 [Compound 453, (R)-6-chloro-3-((1-(2-(4-(4-fluoro-1-methyl-1H-pyrazol-3-yl)piperidin-1-yl)-3-methyl-4-oxo-6-(trifluoromethyl)-3,4-dihydroquinazolin-8-yl)ethyl)amino)-N-(methylsulfonyl) picolinamide] | ≥ 5 µM | < 0.25 µM
Cc1cc([C@@H](C)Nc2ccc(Cl)nc2C(=O)NS(C)(=O)=O)c2nc(N3C[C@@H]4[C@H](C3)[C@H]4c3n[nH]cc3F)n(C)c(=O)c2c1 [Compound 454, 6-chloro-3-(((R)-1-(2-((1R,5S,6R)-6-(4-fluoro-1H-pyrazol-3-yl)-3-azabicyclo[3.1.0]hexan-3-yl)-3,6-dimethyl-4-oxo-3,4-dihydroquinazolin-8-yl)ethyl)amino)-N-(methylsulfonyl) picolinamide] | 1 to 5 µM | < 0.25 µM
Cc1cc([C@@H](C)Nc2ccc(Cl)nc2C(=O)NS(C)(=O)=O)c2nc(N3CCC(c4c(F)cnn4C4CC4)CC3)n(C)c(=O)c2c1 [Compound 455, (R)-6-chloro-3-((1-(2-(4-(1-cyclopropyl-4-fluoro-1H-pyrazol-5-yl)piperidin-1-yl)-3,6-dimethyl-4-oxo-3,4-dihydroquinazolin-8-yl)ethyl)amino)-N-(methylsulfonyl) picolinamide] | 1 to 5 µM | < 0.25 µM
[2H]C([2H])([2H])n1cc(F)c(C2CCN(c3nc4c([C@@H](C)Nc5ccc(Cl)nc5C(=O)NS(C)(=O)=O)cc(C)cc4c(=O)n3C)CC2)n1 [Compound 456, (R)-6-chloro-3-((1-(2-(4-(4-fluoro-1-(methyl-d3)-1H-pyrazol-3-yl)piperidin-1-yl)-3,6-dimethyl-4-oxo-3,4-dihydroquinazolin-8-yl)ethyl)amino)-N-(methylsulfonyl) picolinamide] | ≥ 5 µM | < 0.25 µM
[2H]C([2H])([2H])n1ncc(F)c1C1CCN(c2nc3c([C@@H](C)Nc4ccc(Cl)nc4C(=O)NS(C)(=O)=O)cc(C)cc3c(=O)n2C)CC1 [Compound 457, (R)-6-chloro-3-((1-(2-(4-(4-fluoro-1-(methyl-d3)-1H-pyrazol-5-yl)piperidin-1-yl)-3,6-dimethyl-4-oxo-3,4-dihydroquinazolin-8-yl)ethyl)amino)-N-(methylsulfonyl) picolinamide] | ≥ 5 µM | 0.5 to 1 µM
Cc1cc([C@@H](C)Nc2ccc(Cl)nc2C(=O)NS(C)(=O)=O)c2nc(N3CCC(c4nc(C(F)(F)F)n(C)n4)CC3)n(C)c(=O)c2c1 [Compound 458, (R)-6-chloro-3-((1-(3,6-dimethyl-2-(4-(1-methyl-5-(trifluoromethyl)-1H-1,2,4-triazol-3-yl)piperidin-1-yl)-4-oxo-3,4-dihydroquinazolin-8-yl)ethyl)amino)-N-(methylsulfonyl) picolinamide] | ≥ 5 µM | 0.25 to 0.5 µM
Cc1cc([C@@H](C)Nc2ccc(Cl)nc2C(=O)NS(C)(=O)=O)c2nc(N3CCC(c4nc(C)n(C)n4)CC3)n(C)c(=O)c2c1 [Compound 459, (R)-6-chloro-3-((1-(2-(4-(1,5-dimethyl-1H-1,2,4-triazol-3-yl)piperidin-1-yl)-3,6-dimethyl-4-oxo-3,4-dihydroquinazolin-8-yl)ethyl)amino)-N-(methylsulfonyl) picolinamide] | ≥ 5 µM | < 0.25 µM
Cc1cc([C@@H](C)Nc2ccc(Cl)nc2C(=O)NS(C)(=O)=O)c2nc(N3C[C@@H]4[C@H](C3)[C@H]4c3ccnn3C3CC3)n(C)c(=O)c2c1 [Compound 460, 6-chloro-3-(((R)-1-(2-((1R,5S,6R)-6-(1-cyclopropyl-1H-pyrazol-5-yl)-3-azabicyclo[3.1.0]hexan-3-yl)-3,6-dimethyl-4-oxo-3,4-dihydroquinazolin-8-yl)ethyl)amino)-N-(methylsulfonyl) picolinamide] | 1 to 5 µM | < 0.25 µM
COc1c([C@H]2[C@@H]3CN(c4nc5c([C@@H](C)Nc6ccc(Cl)nc6C(=O)NS(C)(=O)=O)cc(C)cc5c(=O)n4C)C[C@@H]32)cnn1C [Compound 461, 6-chloro-3-(((R)-1-(2-((1R,5S,6S)-6-(5-methoxy-1-methyl-1H-pyrazol-4-yl)-3-azabicyclo[3.1.0]hexan-3-yl)-3,6-dimethyl-4-oxo-3,4-dihydroquinazolin-8-yl)ethyl)amino)-N-(methylsulfonyl) picolinamide] | 1 to 5 µM | < 0.25 µM
Cc1cc([C@@H](C)Nc2ccc(Cl)nc2C(=O)NS(C)(=O)=O)c2nc(N3C[C@@H]4[C@H](C3)[C@H]4c3nn(C)c(C)c3F)n(C)c(=O)c2c1 [Compound 462, 6-chloro-3-(((R)-1-(2-((1R,5S,6R)-6-(4-fluoro-1,5-dimethyl-1H-pyrazol-3-yl)-3-azabicyclo[3.1.0]hexan-3-yl)-3,6-dimethyl-4-oxo-3,4-dihydroquinazolin-8-yl)ethyl)amino)-N-(methylsulfonyl) picolinamide] | ≥ 5 µM | < 0.25 µM
Cc1cc([C@@H](C)Nc2ccc(Cl)nc2C(=O)NS(C)(=O)=O)c2nc(N3CCC(c4nn(C(F)F)cc4F)CC3)n(C)c(=O)c2c1 [Compound 463, (R)-6-chloro-3-((1-(2-(4-(1-(difluoromethyl)-4-fluoro-1H-pyrazol-3-yl)piperidin-1-yl)-3,6-dimethyl-4-oxo-3,4-dihydroquinazolin-8-yl)ethyl)amino)-N-(methylsulfonyl) picolinamide] | ≥ 5 µM | 0.25 to 0.5 µM
Cc1cc([C@@H](C)Nc2ccc(Cl)nc2C(=O)NS(C)(=O)=O)c2nc(N3CCC(c4c(F)cnn4C(F)F)CC3)n(C)c(=O)c2c1 [Compound 464, (R)-6-chloro-3-((1-(2-(4-(1-(difluoromethyl)-4-fluoro-1H-pyrazol-5-yl)piperidin-1-yl)-3,6-dimethyl-4-oxo-3,4-dihydroquinazolin-8-yl)ethyl)amino)-N-(methylsulfonyl) picolinamide] | ≥ 5 µM | 0.25 to 0.5 µM
Cc1cc([C@@H](C)Nc2ccc(Cl)nc2C(=O)NS(C)(=O)=O)c2nc(N3C[C@@H]4[C@H](C3)[C@H]4c3noc(C)n3)n(C)c(=O)c2c1 [Compound 465, 6-chloro-3-(((R)-1-(3,6-dimethyl-2-((1R,5S,6R)-6-(5-methyl-1,2,4-oxadiazol-3-yl)-3-azabicyclo[3.1.0]hexan-3-yl)-4-oxo-3,4-dihydroquinazolin-8-yl)ethyl)amino)-N-(methylsulfonyl) picolinamide] | 1 to 5 µM | < 0.25 µM
Cc1cc([C@@H](C)Nc2ccc(Cl)nc2C(=O)NS(C)(=O)=O)c2nc(N3C[C@@H]4[C@H](C3)[C@H]4c3nn(C)cc3F)n(C3CC3)c(=O)c2c1 [Compound 466, 6-chloro-3-(((R)-1-(3-cyclopropyl-2-((1R,5S,6R)-6-(4-fluoro-1-methyl-1H-pyrazol-3-yl)-3-azabicyclo[3.1.0]hexan-3-yl)-6-methyl-4-oxo-3,4-dihydroquinazolin-8-yl)ethyl)amino)-N-(methylsulfonyl) picolinamide] | ≥ 5 µM | 0.25 to 0.5 µM
